Experimental data published in patent US11638424B2, “Mosquito attractant formulations and uses thereof” (priority 2017, dated 2023).

Tests used:
A. gambiae sensu lato [1] = assay: Feeding proportion experiments (90 s on membrane feeder); type: in vivo
Procedure: Mosquitoes used in this study were from the laboratory colony of A. gambiae sensu lato (Keele line, University of Glasgow), which was produced by balanced interbreeding of four A. gambiae s.s. strains (H. Hurd, et al. Evolution, 59, 2560-2572 (2005)). Larvae were reared under standard insectary conditions (27±1° C., 70% humidity, 12 h light: 12 h dark cycle) and fed on TetraMin fish flakes (Tetra ltd., Germany). Pupae were transferred into holding cages for emergence. Emerged adults were fed ad libitum on 5% glucose solution, supplemented with 0.05% (w/v) 4-aminobenzoic acid (PABA, Sigma-Aldrich), through soaked filters on top of the 2 ml tubes and with soaked filter pads inside cages. Red blood cells (RBCs) were washed with Roswell Park Memorial Institute (RPMI) medium and stored in RPMI at 50% haematocrit at 4° C. until use. […]
Fifty mosquitoes were isolated in three separate cages (8 cm internal diameter×10 cm in height) covered with netting, and fed on 1 ml of control RBCs, hRBCs or giRBCs, respectively. […] For each group, the number of fully fed mosquitoes compared to unfed controls was immediately recorded. In another set of feeding experiments, serum or a 0.9% physiological saline solution (NaCl, pH 7.4), either with or without 10 μM HMBPP, were offered to mosquitoes during a 5 min feeding window, and the number of fed mosquitoes recorded every minute for each cage separately. […]

A. gambiae sensu lato [2] = assay: Persistency (landing, probing and initiating feeding) within 5 min on cell-free meals; type: in vivo
Procedure: Fifty mosquitoes were isolated in three separate cages (8 cm internal diameter×10 cm in height) covered with netting, and fed on 1 ml of control RBCs, hRBCs or giRBCs, respectively. […] For each group, the number of fully fed mosquitoes compared to unfed controls was immediately recorded. In another set of feeding experiments, serum or a 0.9% physiological saline solution (NaCl, pH 7.4), either with or without 10 μM HMBPP, were offered to mosquitoes during a 5 min feeding window, and the number of fed mosquitoes recorded every minute for each cage separately. In the saline experiment, an additional treatment of 10 μM IPP in NaCl was included.

A. gambiae s.l. [3] = assay: Olfactometer bioassay (larger Y-tube olfactometer / wind tunnel assay); type: in vivo; conditions: larger Y-tube olfactometer, FIG. 2A
Procedure: Behavioural experiments were performed using different odour sources with and without pulsed CO2 stimuli in a Plexiglas Y shaped olfactometer (9.5 cm i.d.×length of the central cylinder and two arms: 120/120/120 cm respectively), illuminated from above at 280 lx. A charcoal-filtered and humidified air stream (25±2° C., RH 65±2%) passed through stainless steel mesh screens at 30 cm s^−1 to generate a laminar flow in the olfactometer. Odors were introduced into the air stream of each arm at the downwind end. […] Odor sources consisted of either RBC-based treatments or headspace extracts. RBC-based treatments included RBCs alone, hRBCs, giRBCs or ippRBCs (RBCs supplemented with HMBPP, gametocytes or IPP), as well as RBCs with supernatants from gametocyte-infected RBCs, or RBCs supplemented with the synthetic odour blend. Headspace extracts collected from hRBCs and giRBCs were used. Treatments including RBCs were heated to 37° C. prior to being pumped (150 ml min^−1) into the airstream of each arm separately. The blend and headspace extracts were delivered to each arm via a wick dispenser. Carbon dioxide (Strandmöllen) was introduced into a plume generator that was placed behind the metal screens to create a homogenous-pulsed flow, which was regulated by a stimulus controller (SEC-2/b, Syntech, Löptin Germany). […]

[4] = tested on: Plasmodium falciparum (NF54 strain); assay: Mosquito infectious feed (P. falciparum oocyst and sporozoite infection in mosquitoes); type: in vivo
Procedure: A strain of the human malaria parasite P. falciparum, denoted NF54 (T. Ponnudurai, et al., Trop Geogr Med, 33, 50-54 (1981); kindly donated by Klays Berzins, Stockholm University), known to produce gametocytes infectious to mosquitoes (D. Walliker, paper presented at the Symposia on Molecular and Cellular Biology New Series 42, UCLA (1987)), was used for all experimental infections. Parasites were cultured in vitro according to standard protocols (W. Trager and J. B. Jensen, Science, 193, 673-675 (1976)) at 5% haematocrit in complete RPMI-1640 medium with 10% human serum under a gas environment of 1% O2, 3% CO2 and 96% N2 (Labline, Goteborg, Sweden). The culture medium was replaced daily and parasitaemia assessed using Giemsa staining every two days (ibid.). When the parasitaemia reached ˜6% (approximately 2 days after initiating the culture), cultures were diluted with a freshly made 5% haematocrit mixture of RBCs/complete medium. Asexual, synchronised trophozoites were fed to mosquitoes at 5% parasitaemia.
Plasmodium falciparum gametocyte cultures (NF54 strain) were set up at 0.5-0.7% parasitaemia, 6% haematocrit in complete RPMI medium, according to standard procedures (R. Carter, et al. Methods Mol Biol, 21, 67-88 (1993)). For each infectious feeding, a mixture of gametocytes from 14- and 17-day gametocyte cultures were used (ibid.). On the day of experimental infection, uninfected RBCs were supplemented with P. falciparum gametocytes to a final gametocytaemia of approximately 3%, which is known to generate good infection prevalence (>50% in A. gambiae s.s. mosquitoes; ibid.). To measure the effect of HMBPP on parasite infectiousness, two groups of approximately 210 mosquitoes were fed on mature gametocyte-infected red blood cells (giRBCs) with or without HMBPP using a membrane feeder, as previously described (ibid.). Gametocyte density was kept equal in control and treatments. To give the final gametocytaemia of 3% in each tubes, on the day of feed, the final mature gametocytaemia was calculated in cultures and then the volume of gametocyte inoculum was estimated per 1 ml of blood. The gametocyte inoculum was prepared using an equal volume (˜400 μl) of the gametocyte mixture was added to 1 ml of each of the blood treatments (with/without HMBPP). Adding a fixed volume of well-mixed gametocyte culture to a fixed volume of each blood treatment, it was ensured that parasite density (no. gametocytes per ml) was constant in both groups.

A. gambiae s.l. [5] = conditions: in vivo; cited from earlier work

C/C(=C\COP(=O)(O)OP(=O)(O)O)CO [HMBPP, (E)-4-hydroxy-3-methyl-but-2-enyl pyrophosphate]
proportion of mosquitoes feeding over a range of HMBPP concentrations (A. gambiae sensu lato [1]; RBCs supplemented with different concentrations of HMBPP, below 10 μM): substantially lower doses are sufficient to trigger enhanced mosquito feeding
proportion of females fed (A. gambiae sensu lato [1]; hRBCs (10 μM HMBPP) vs RBCs, 90 s feeding, FIG. 1B): more than doubled
persistency / phagostimulatory effect in physiological salt solution (A. gambiae sensu lato [2]; 0.9% NaCl, 10 μM, 5 min, FIG. 1F): generated a similar effect
percent persistency within 5 min (females that landed and initiated probing and feeding) (A. gambiae sensu lato [2]; serum with 10 μM HMBPP (serum alone 20%), FIG. 1E): Approximately 80%
attraction of mosquitoes to supplemented RBCs versus RBCs (A. gambiae s.l. [3]): could mimic the attraction of mosquitoes to giRBCs
oocyst prevalence (proportion of oocyst-carrying mosquitoes) ([4]; giRBCs with additional HMBPP, gametocyte density 3%): ~100%
sporozoite intensity (number of sporozoites per salivary gland) ([4]; giRBCs with vs without HMBPP): significantly higher
oocyst intensity (number of oocyst per midgut) ([4]; giRBCs with vs without HMBPP, 10 dpi, FIG. 3D): higher
sporozoite prevalence (proportion of sporozoite-carrying mosquitoes) ([4]; giRBCs with vs without HMBPP, 14 dpi, FIG. 3E): significantly higher
oocyst prevalence, difference between treatments ([4]; giRBCs with vs without additional HMBPP): not significantly different
innate immune responses in A. gambiae s.l. (A. gambiae s.l. [5]): trigger innate immune responses
